Columns and labels:
Hepatocyte [1] = test: Hepatoprotective activity against D-GaIN/TNFalpha induced cell death in mouse hepatocytes assessed as cell survival rate at 100 uM relative to control; assay type: functional
Hepatocyte [2] = test: Hepatoprotective activity against D-GaIN/TNFalpha induced cell death in mouse hepatocytes assessed as cell survival rate at 50 uM relative to control; assay type: functional
Hepatocyte [3] = test: Hepatoprotective activity against D-GaIN/TNFalpha induced cell death in mouse hepatocytes assessed as cell survival rate at 200 uM relative to control; assay type: functional
Mus musculus [4] = species: Mus musculus; test: Hepatoprotective activity in mouse liver homogenate assessed as inhibition of iron/ascorbate lipid peroxidation at 5.0 mg/mL relative to control; assay type: functional; set-up: scale not given: the % may be the effect or the level left
Rattus norvegicus [5] = test: Hepatoprotective activity in CCl4-induced rat model of liver injury assessed as reduction in ALT level at 4 mg/kg relative to control; assay type: functional; set-up: scale not given: the % may be the effect or the level left
[6] = Antiproliferative activity against rat HSC-T6 assessed as reduction in cell viability at 100 uM measured at 48 hrs by MTT assay relative to control; assay type: functional
[7] = Hepatotoxicity in GaIN-induced rat model of liver injury assessed as reduction in ALT level at 4 mg/kg relative to control; assay type: toxicity, organism-based; set-up: scale not given: the % may be the effect or the level left; details: in vivo
[8] = Hepatotoxicity in CCl4-induced liver damage in ICR mouse model assessed as reduction in sGOT level at 10 mg/kg relative to control; assay type: toxicity, organism-based; set-up: scale not given: the % may be the effect or the level left; details: in vivo
[9] = Hepatotoxicity in CCl4-induced liver damage in ICR mouse model assessed as reduction in sGPT level at 10 mg/kg relative to control; assay type: toxicity, organism-based; set-up: scale not given: the % may be the effect or the level left; details: in vivo
Rattus norvegicus [10] = test: Hepatoprotective activity in CCl4-induced rat model assessed as elevated level of ALP at 20 mg/kg relative to control; assay type: functional
Rattus norvegicus [11] = test: Hepatoprotective activity in CCl4-induced rat model assessed as elevated level of GOT at 10 mg/kg relative to control; assay type: functional
Rattus norvegicus [12] = test: Hepatoprotective activity in CCl4-induced rat model assessed as elevated level of GPT at 10 mg/kg relative to control; assay type: functional
Rattus norvegicus [13] = test: Hepatoprotective activity in CCl4-induced rat model assessed as elevated level of ALP at 10 mg/kg relative to control; assay type: functional
Rattus norvegicus [14] = test: Hepatoprotective activity in CCl4-induced rat model assessed as elevated level of GPT at 20 mg/kg relative to control; assay type: functional
Rattus norvegicus [15] = test: Hepatoprotective activity in CCl4-induced rat model assessed as elevated level of GOT at 20 mg/kg relative to control; assay type: functional
Rattus norvegicus [16] = test: Hepatoprotective activity in CCl4-induced rat model assessed as elevated level of bilirubin at 10 mg/kg relative to control; assay type: functional
Rattus norvegicus [17] = test: Hepatoprotective activity in CCl4-induced rat model assessed as elevated level of bilirubin at 20 mg/kg relative to control; assay type: functional
Huh-7 [18] = test: Hepatoprotective activity in human Huh-7 cells assessed as reduction in ALT level; assay type: functional; set-up: scale not given: the % may be the effect or the level left
Huh-7 [19] = test: Hepatoprotective activity in human Huh-7 cells assessed as reduction in AST level; assay type: functional; set-up: scale not given: the % may be the effect or the level left
Huh-7 [20] = test: Hepatoprotective activity in human Huh-7 cells assessed as increasing in GSH level; assay type: functional
Mus musculus [21] = species: Mus musculus; test: Hepatoprotective activity in CCl4-induced toxicity in liver injured mouse assessed as increase in inhibition of liver damage at 50 uM relative to control; assay type: functional; set-up: scale not given: the % may be the effect or the level left
Mus musculus [22] = species: Mus musculus; test: Hepatoprotective activity in GaIN-induced toxicity in liver injured mouse assessed as increase in inhibition of liver damage at 50 uM relative to control; assay type: functional; set-up: scale not given: the % may be the effect or the level left
HepG2 [23] = test: Hepatoprotective activity against H2O2-induced cell death in human HepG2 cells assessed as elevated level AST at 65.7 uM; assay type: functional
HepG2 [24] = test: Hepatoprotective activity against H2O2-induced cell death in human HepG2 cells assessed as elevated level ALT at 65.7 uM; assay type: functional
Mus musculus [25] = test: Hepatoprotective activity in mouse model of D-GaIN/LPS-induced liver injury assessed as inhibition of beta-glucuronidase secretion at […] relative to control; assay type: functional; set-up: scale not given: the % may be the effect or the level left; details: dose 10 µg/ml
Rattus norvegicus [26] = test: Hepatoprotective activity in ethanol-induced rat model of liver injury assessed as reduction in AST level at 4 mg/kg relative to control; assay type: functional; set-up: scale not given: the % may be the effect or the level left
Rattus norvegicus [27] = test: Hepatoprotective activity in GaIN-induced rat model of liver injury assessed as reduction in ALT level at 4 mg/kg relative to control; assay type: functional; set-up: scale not given: the % may be the effect or the level left
Mus musculus [28] = species: Mus musculus; test: Hepatoprotective activity in CCl4-induced toxicity in liver injured mouse assessed as increase in inhibition of liver damage relative to control; assay type: functional; set-up: concentration or dose not given beside the values
Rattus norvegicus [29] = test: Hepatoprotective activity in ethanol-induced rat model of liver injury assessed as reduction in ALT level at 4 mg/kg relative to control; assay type: functional; set-up: scale not given: the % may be the effect or the level left

Q: With `C=C(C)[C@@H]1CC[C@]2(C(=O)O)CC[C@]3(C)[C@H](CC[C@@H]4[C@@]5(C)CC[C@H](O)C(C)(C)[C@@H]5CC[C@]43C)[C@@H]12` [BETULINIC ACID] as the compound, how does the Activity (Hepatocyte [1]) read?
A: The Activity was 26.1%.

Q: What about the Activity (Hepatocyte [2]) of the same compound?
A: Its Activity is 39.2%.

Q: And the Activity (Hepatocyte [3])?
A: The Activity was 23%.

Q: And the Activity (Mus musculus [4])?
A: The Activity was 52.7%.

Q: Which Activity (Rattus norvegicus [5]) does the source give for `COC(=O)[C@]12CC[C@@H](C)[C@H](C)[C@H]1C1=CC[C@@H]3[C@@]4(C)C[C@@H](OC)[C@H](OC(C)=O)[C@@](C)(COC(C)=O)[C@@H]4CC[C@@]3(C)[C@]1(C)CC2` here?
A: Its Activity is 33.3%.

Q: For `C[C@H]1[C@@H](O)CC[C@@H]2[C@]1(C)CC[C@H]1[C@@]2(C)CC[C@@]2(C)[C@@H]3CC(C)(C)CC[C@]3(C)CC[C@]12C` [EPIFRIEDELINOL], which Activity [6] is on record?
A: The Activity was 61%.

Q: With `COC(=O)[C@]12CC[C@@H](C)[C@H](C)[C@H]1C1=CC[C@@H]3[C@@]4(C)C[C@@H](OCc5ccccc5)C5OC(C)(C)OC[C@@]5(C)[C@@H]4CC[C@@]3(C)[C@]1(C)CC2` (some centres undefined) as the compound, how does the Activity [7] read?
A: Its Activity is 33.6%.

Q: With `C=C(C)[C@@H]1CC[C@]2(C)CC[C@]3(C)[C@H](CC[C@@H]4[C@@]5(C)CC[C@@H](OC(=O)CCCCCCCCCCCCCCC)C(C)(C)[C@@H]5CC[C@]43C)[C@@H]12` as the compound, how does the Activity [8] read?
A: Its Activity is 9.2%.

Q: And the Activity [9]?
A: The Activity was 6.9%.

Q: With `CC(C)[C@@H]1CC[C@@H]2C3=CC[C@@H]4[C@@]5(C)CC[C@@H](O)C(C)(C)[C@@H]5CC[C@@]4(C)[C@]3(C)CC[C@]21C(=O)O` as the compound, how does the Activity (Rattus norvegicus [10]) read?
A: Its Activity is 32%.

Q: What about the Activity (Rattus norvegicus [11]) of the same compound?
A: Its Activity is 13%.

Q: What about the Activity (Rattus norvegicus [12]) of the same compound?
A: The Activity was 24%.

Q: What about the Activity (Rattus norvegicus [13]) of the same compound?
A: The Activity was 5%.

Q: What about the Activity (Rattus norvegicus [14]) of the same compound?
A: Its Activity is 13%.

Q: And the Activity (Rattus norvegicus [15])?
A: Its Activity is 21%.

Q: And the Activity (Rattus norvegicus [16])?
A: The Activity was 30%.

Q: What about the Activity (Rattus norvegicus [17]) of the same compound?
A: Its Activity is 24%.

Q: Which Activity (Huh-7 [18]) does the source give for `C[C@H]1[C@H](C)CC[C@]2(C(=O)O)CC[C@]3(C)C(=CC[C@@H]4[C@@]5(C)CC[C@H](O)C(C)(C)[C@@H]5CC[C@]43C)[C@H]12` [URSOLIC ACID] here?
A: The Activity was 37.5%.

Q: And the Activity (Huh-7 [19])?
A: Its Activity is 37.5%.

Q: What about the Activity (Huh-7 [20]) of the same compound?
A: Its Activity is 2.37 mg.

Q: For `C[C@H]1[C@H](C)CC[C@]2(C(=O)O)CC[C@]3(C)C(=CC[C@@H]4[C@@]5(C)CC(=O)[C@H](O)[C@@](C)(CO)[C@@H]5CC[C@]43C)[C@H]12`, which Activity (Mus musculus [21]) is on record?
A: Its Activity is 54.3%.

Q: And the Activity (Mus musculus [22])?
A: The Activity was 49%.

Q: Which Activity (HepG2 [23]) does the source give for `C[C@H]1C(=O)CC[C@@H]2[C@]1(C)CC[C@H]1[C@@]2(C)CC[C@@]2(C)[C@@H]3CC(C)(C)CC[C@]3(C)CC[C@]12C` [FRIEDELINE] here?
A: Its Activity is 67.5%.

Q: What about the Activity (HepG2 [24]) of the same compound?
A: The Activity was 30.8%.

Q: Which Activity (Mus musculus [25]) does the source give for `CC(C)=CCC[C@]1(C)CC[C@]2(C)[C@H]3CC=C4[C@@H](CC[C@H](O)C4(C)C)[C@]3(C)CC[C@@]2(C)C1` here?
A: The Activity was 57%.

Q: Which Activity (Rattus norvegicus [26]) does the source give for `C[C@H]1[C@H](C)CC[C@]2(C(=O)O)CC[C@]3(C)C(=CC[C@@H]4[C@@]5(C)C[C@@H](O)[C@H](O)[C@@](C)(CO)[C@@H]5CC[C@]43C)[C@H]12` [ASIATIC ACID] here?
A: Its Activity is 25%.

Q: And the Activity (Rattus norvegicus [27])?
A: The Activity was 23.1%.

Q: And the Activity (Mus musculus [28])?
A: Its Activity is 1%.

Q: What about the Activity (Rattus norvegicus [29]) of the same compound?
A: The Activity was 20%.

— ChEMBL document CHEMBL5260832, “Hepatoprotective natural triterpenoids” (Eur J Med Chem, 2018)
